# Measurements as given in US20060141546A1, “Bacterial test method by glycated label binding” (priority 2002, published 2006).
# B1: Myoglobin: non-glycated protein as received from suppliers (protein, UniProt P02144 2-154, looked up)
# Myoglobin: GLSDGEWQLVLNVWGKVEADIPGHGQEVLIRLFKGHPETLEKFDKFKHLKSEDEMKASEDLKKHGATVLTALGGILKKKGHHEAEIKPLAQSHATKHKIPVKYLEFISECIIQVLQSKHPGDFGADAQGAMNKALELFRKDMASNYKELGFQG
# B2: beta-2-Glycoprotein: glycoprotein with one N-link complex type chain (protein, UniProt P02749 20-345, looked up)
# Beta-2-glycoprotein 1: GRTCPKPDDLPFSTVVPLKTFYEPGEEITYSCKPGYVSRGGMRKFICPLTGLWPINTLKCTPRVCPFAGILENGAVRYTTFEYPNTISFSCNTGFYLNGADSAKCTEEGKWSPELPVCAPIICPPPSIPTFATLRVYKPSAGNNSLYRDTAVFECLPQHAMFGNDTITCTTHGNWTKLPECREVKCPFPSRPDNGFVNYPAKPTLYYKDKATFGCHDGYSLDGPEEIECTKLGNWSAMPSCKASCKVPVKKATVVYQGERVKIQEKFKNGMLHGDKVSFFCKNKEKKCSYTEDAQCIDGTIEVPKCFKEHSSLAFWKTDASDVKPC
# B3: Uristatin: urinary trypsin inhibitor lacking the O-linked glycoconjugate chain (protein, UniProt P02760 206-352, looked up)
# Inter-alpha-trypsin inhibitor …: AVLPQEEEGSGGGQLVTEVTKKEDSCQLGYSAGPCMGMTSRYFYNGTSMACETFQYGGCMGNGNNFVTEKECLQTCRTVAACNLPIVRGPCRAFIQLWAFDAVKGKCVLFPYGGCQGNGNKFYSEKECREYCGVPGDGDEELLRFSN
# modifications: Inter-alpha-trypsin inhibitor light chain lacks O-linked glycan chain
# B4: Bikunin: urinary trypsin inhibitor with two glycoconjugate chains and two Kunitz inhibitor domains (protein, UniProt P02760 206-352, looked up)
# Inter-alpha-trypsin inhibitor …: B3 Inter-alpha-trypsin inhibitor …
# modifications: Inter-alpha-trypsin inhibitor light chain
# How the values were obtained:
# E. coli [1] = experiment: Competitive inhibition of ALP binding to bacteria by added protein (Example 3, Table 2); conditions: protein 2-40 μg added with ALP 2 μg
# Experimental: (§1) Less than 20% was no inhibition (NI) and greater than 90% was complete inhibition (CI) with a binding constant great than ALP.
# (§2) Bacterial cells (1 to 4.5×10^7 cells/mL) were washed twice with water after centrifugation to separate cells into a packed pellet from the supernatant liquid. The washed cells in pellet form were suspended in 20 ul of N-2-hydroxyethyl piperazine-N′-[3-propane sulfonic acid] EPPS buffer (50 mM at pH 8.0) and 30 μL of water. Glycated protein(s) (2-40 μg) were added. In some cases a glycated protein (2-40 μg) and bovine intestinal alkaline phosphatase (ALP) (2 μg or […]) were added and the binding of the glycated protein measured by the reduction of binding of ALP.
# (§3) The mixture of glycated protein and bacterial cells was left at 25° C. for 15 minutes. The mixture was then centrifuged at 30,000 rpm for 30 minutes after which the bacterial cells formed a pellet at the bottom of the tube and were washed with water 4-5 times (50 μL). Centrifugation allows separation of glycoprotein bound to the bacteria cells from unbound glycated protein(s).
# (§4) After washing, the bacterial pellets were suspended in 50 μL of borate buffer (25 mM at pH 9.0). A 5 μL aliquot of the suspension was assayed for detection of ALP binding by adding 5 μL of para-nitrophenol phosphate (PNPP, 100 mM), 50 μL sodium borate buffer (25 mM at pH 9.0) and 140 μL of water. […] The color is read at 405 nm using a ELISA plate reader between 15-30 min. The absorbance is directly proportional to the amount of ALP bound to the bacteria cell adhesions for glycated groups.
# (§5) Only a protein binding to the cell adhesions for glycated groups causes the inhibition of the binding of ALP by bacteria. A protein binding to the cell adhesions for glycated groups provides a positive number in Table 2.
# S. faec. [2] = experiment: as above; conditions: protein 2-40 μg added with ALP 2 μg
# Experimental: as §1, §2, §3, §4, §5
# bacteria [3] = experiment: Competitive inhibition of ALP binding to bacteria (Example 3); conditions: for binding to bacteria compared with ALP: from complete inhibition of ALP binding
# Experimental: as §1, §2, §3, §4, §5
# E. coli [4] = experiment: ALP binding to bacteria in presence of carbohydrates, polysaccharides, glycopeptides and lectins (Example 5, Table 3); conditions: ALP 100 mUnits plus 15 μg of additive
# Experimental: (§6) Bacterial cells (1 to 4.5×10^7 cells/mL) were washed twice with water after centrifugation to separate cells into a packed pellet from the supernatant liquid. The washed cells in pellet form were suspended in 20 μl of EPPS buffer (50 mM at pH 8.0) and 30 μL of water. Hemoglobin (20 μg) was added as a blocking additive. Alkaline phosphatase (ALP) (100 mUnits) from bovine intestine and 15 μg of simple carbohydrates or proteoglycan or lectins, were added.
# as §3
# (§7) After washing, the bacterial pellets were suspended in 50 μL of sodium tetraborate buffer (25 mM at pH 9.5). A 5 uL aliquot of the suspension was assayed for detection of ALP binding by adding 5 μL of para-nitrophenol phosphate (PNPP, 100 mM), 50 μL sodium borate buffer (25 mM at pH 9.0) and 140 μL of water. […] The color is read at 405 nm using a ELISA plate reader between 15-30 min and the absorbance is directly proportional to the amount of ALP bound to the bacteria cell adhesions for glycated groups.
# S. faec. [5] = experiment: as above; conditions: ALP 100 mUnits plus 15 μg of additive
# Experimental: as §6, §3, §7
# [6] = test system: bacteria (Sf—Staph. faec.; Ec: E. coli); experiment: Effect of various cations on ALP binding to bacteria (Example 8, FIGS. 13-14); conditions: FIG. 13; for effect of various cations on ALP-binding (in words): cations 2 mM, bovine intestinal mucosa ALP
# Experimental: (§8) Bacterial cells (1 to 4.5×10^7 cells/mL) were washed twice with water after centrifugation to separate cells into a packed pellet from the supernatant liquid. The washed cells in pellet form were suspended in 20 μL of EPPS buffer (50 mM at pH 8.0) and 30 μL of water. […]
# as §3, with “was” for “were”
# as §4, with “color was” for “color is”, “using an” for “using a”, “15-30 min; the” for “15-30 min. The”, “bacteria cell.” for “bacteria cell adhesions for glycated groups.”
# [7] = buffers for ALP determinations; cited from earlier work
# bacteria [8] = experiment: Effect of divalent cations on ALP binding to bacteria (Example 7, Table 5, FIG. 12); conditions: for O.D. at 405 nm, With ALP: bacteria plus cation (CaCl2 1 mM, MgCl2 1 mM, ZnCl2 0.2 mM) with ALP; for O.D. at 405 nm, No ALP: bacteria plus cation (CaCl2 1 mM, MgCl2 1 mM, ZnCl2 0.2 mM)
# Experimental: as §8, §3
# as §4, with “color was” for “color is”, “using an” for “using a”, “15-30 min; the” for “15-30 min. The”, “bacteria cell.” for “bacteria cell adhesions for glycated groups.”
molecule,measurement,setting,value
α-1-glycoprotein (AGP): glycated protein with five complex or hybrid type chains,inhibition of the binding of ALP by bacteria,E. coli [1],86%
same,inhibition of the binding of ALP by bacteria,S. faec. [2],>90%
same,binding to bacteria compared with ALP,bacteria [3],better binders than ALP
α-1-Antitrypsin: glycated protein as received from suppliers,inhibition of the binding of ALP by bacteria,E. coli [1],84%
same,inhibition of the binding of ALP by bacteria,S. faec. [2],74%
polylysine [reference compound],inhibition of the binding of ALP by bacteria (in words),bacteria [3],not found to inhibit ALP activity
Concanavalin A,absorbance (405 nm) of ALP bound to bacteria,E. coli [4],0.0
same,absorbance (405 nm) of ALP bound to bacteria,S. faec. [5],0.1
Chondroitin sulfate A,absorbance (405 nm) of ALP bound to bacteria,E. coli [4],1.1
same,absorbance (405 nm) of ALP bound to bacteria,S. faec. [5],1.3
[Fe+2] [Fe^2+],effect of various cations on ALP-binding (in words),[6],stimulate ALP-binding
polyhistidine [reference compound],inhibition of the binding of ALP by bacteria (in words),bacteria [3],not found to inhibit ALP activity
"CC(=O)N[C@@H]1[C@@H](O)[C@H](O)[C@@H](CO)O[C@H]1O [GlcNAc, N-Acetyl-β-D-Glucosamine]",absorbance (405 nm) of ALP bound to bacteria,E. coli [4],2.0
same,absorbance (405 nm) of ALP bound to bacteria,S. faec. [5],2.0
OCCNCCO [diethanolamine],pKa,[7],8.7
Tamm-Horsfall protein (THP): glycated protein with one high-mannose and five complex or hybrid type chains,inhibition of the binding of ALP by bacteria,E. coli [1],40%
same,inhibition of the binding of ALP by bacteria,S. faec. [2],49%
CCC1(CC)C(=O)NC(=O)NC1=O [barbital],pKa,[7],7.44
C[C@H](O)[C@@H](O)[C@@H](O)[C@H](O)C=O [Fucose],absorbance (405 nm) of ALP bound to bacteria,E. coli [4],2.0
same,absorbance (405 nm) of ALP bound to bacteria,S. faec. [5],2.3
O=C[C@H](O)[C@@H](O)[C@H](O)[C@H](O)C(=O)O [Glucuronic acid],absorbance (405 nm) of ALP bound to bacteria,E. coli [4],1.9
same,absorbance (405 nm) of ALP bound to bacteria,S. faec. [5],2.0
Hemoglobin [reference compound],inhibition of the binding of ALP by bacteria,E. coli [1],<20%
same,inhibition of the binding of ALP by bacteria,S. faec. [2],<20%
same,inhibition of the binding of ALP by bacteria (in words),bacteria [3],did not inhibit the binding of ALP
CC(C)(N)CO [2-amino-2-methyl-1-propanol],pKa,[7],9.3
Hyaluronic Acid,absorbance (405 nm) of ALP bound to bacteria,E. coli [4],1.8
same,absorbance (405 nm) of ALP bound to bacteria,S. faec. [5],2.0
Chondroitin sulfate B,absorbance (405 nm) of ALP bound to bacteria,E. coli [4],0.9
same,absorbance (405 nm) of ALP bound to bacteria,S. faec. [5],0.5
"Transferrin: glycated protein, simple carbohydrates",inhibition of the binding of ALP by bacteria,E. coli [1],75%
same,inhibition of the binding of ALP by bacteria,S. faec. [2],75%
C[C@@H](O[C@H]1[C@H](O)[C@@H](CO)OC(O)[C@@H]1N)C(=O)O (some centres unmarked) [Muramic Acid],absorbance (405 nm) of ALP bound to bacteria,E. coli [4],1.8
same,absorbance (405 nm) of ALP bound to bacteria,S. faec. [5],2.1
[Co+2] [Co^+2],effect of various cations on ALP-binding (in words),[6],stimulate ALP-binding
O=C[C@@H](O)[C@H](O)[C@@H](O)[C@H](O)C(=O)O [Iduronic acid],absorbance (405 nm) of ALP bound to bacteria,E. coli [4],1.9
same,absorbance (405 nm) of ALP bound to bacteria,S. faec. [5],2.0
"O=C(O)CN(CCN(CC(=O)O)CC(=O)O)CC(=O)O [EDTA, reference compound]",ALP activity in the presence of EDTA,[6]; EDTA 10 mM,total inhibition
"CC(N)(CO)CO [2-amino-2-methyl-1,3-propanediol]",pKa,[7],8.6
[Cu+2] [Cu^2+],effect of various cations on ALP-binding (in words),[6],stimulate ALP-binding
[Ca+2].[Cl-].[Cl-] [CaCl2],"O.D. at 405 nm, With ALP",bacteria [8],0.36 O.D.
same,"O.D. at 405 nm, No ALP",bacteria [8],0.23 O.D.
[Cl-].[Cl-].[Mg+2] [MgCl2],"O.D. at 405 nm, With ALP",bacteria [8],0.44 O.D.
same,"O.D. at 405 nm, No ALP",bacteria [8],0.20 O.D.
polyarginine [reference compound],inhibition of the binding of ALP by bacteria (in words),bacteria [3],not found to inhibit ALP activity
"CC(=O)N[C@@H]1[C@@H](O)[C@@H](O)[C@@H](CO)O[C@H]1O [GalNAc, N-Acetyl-β-D-Galactosamine]",absorbance (405 nm) of ALP bound to bacteria,E. coli [4],1.8
same,absorbance (405 nm) of ALP bound to bacteria,S. faec. [5],1.9
B1,inhibition of the binding of ALP by bacteria,E. coli [1],<20%
same,inhibition of the binding of ALP by bacteria,S. faec. [2],<20%
same,inhibition of the binding of ALP by bacteria (in words),bacteria [3],did not inhibit the binding of ALP
B2,inhibition of the binding of ALP by bacteria,E. coli [1],74%
same,inhibition of the binding of ALP by bacteria,S. faec. [2],61%
B3,inhibition of the binding of ALP by bacteria,E. coli [1],>90%
same,inhibition of the binding of ALP by bacteria,S. faec. [2],>90%
same,effect of fragmentation of the peptide chain on inhibition of ALP binding,bacteria [3]; fragmentation with protease,did not impact the inhibition
same,binding to bacteria compared with ALP,bacteria [3],better binders than ALP
B4,inhibition of the binding of ALP by bacteria,E. coli [1],>90%
same,inhibition of the binding of ALP by bacteria,S. faec. [2],>90%
same,binding to bacteria compared with ALP,bacteria [3],better binders than ALP
